Measurements as given in patent US9963480B2, “Nucleoside phosphoramidate compound and use thereof” (priority 2013, dated 2018).

These compounds were tested on HCV 1b replicon (assay: Antiviral activity assay in HCV replicon system (Huh7 1b cells, luciferase reporter)). Conditions: Hepatitis C virus, Huh-7, 72 h.
Assay type: cell-based
Text: The cell line Huh7 1b, which was provided by WuXi AppTec Co., Ltd. in Shanghai, contained an HCV 1b replicon with a stable Luciferase (Luc) reporter. It was constructed by cloning HCV nonstructural protein gene, neo (G418 resistance) and luciferase reporter gene into the pBR vector through gene recombination technology. Then the vector carrying the HCV replicon was transfected into Huh7 cells, and the transfected Huh7 cells were screened by G418 resistance. The HCV replicon was stably replicated, and the related protein and luciferase were stably expressed in Huh7 cells. The cells model was used for in-vitro screen of anti-HCV compounds. The anti-HCV activity of the compounds was measured by detecting the level of luciferase expression. See Lohmann V, et al. 1999. Replication of subgenomic hepatitis C virus RNAs in a hepatoma cell line. Science. 285(5424):110-113.
The control drug used in this experimental example was the compound of Example 25 in WO 2008/121634 (PCT/US2008/058183), i.e. (S)-2-{[(2R,3R,4R,5R)-5-(2,4-dioxo-3,4-dihydro-2H-pyrimidin-1-yl)-4-fluoro-3-hydr oxy-4-methyl-tetrahydro-furan-2-ylmethoxy]-phenoxy-phosphorylamino}-propanoic acid isopropyl ester. This compound was prepared according to the method described in J. Org. chem, 2011, 76, 8311-8319, and identified by H-NMR and mass spectrometry.
• 2.1 compound preparation: adding each of the compounds listed in Table 2 to 96-well plates using a POD™ 810 Automation Platform (LabCyte Corporation, USA), with 10 μM of each of the compounds as a starting concentration and in duplicate; serially diluting each of the compounds in 3-fold fashion and formulating 10 concentrations, with the final concentration of DMSO being 0.5%; • 2.2 cells preparation: seeding the Huh71b cells into 96-well plates respectively with a volume of 125 μl and 8×10^3 cells/well, and incubating in a 37° C., 5% CO2 incubator for 72 h; • 2.3 detection of cell activity: adding 30 μl per cell of the CellTiter-Fluor™ Reagent, incubating in a 37° C., 5% CO2 incubator for 1 h, measuring the fluorescence signal values with a fluorometer, and using the obtained data for calculation of cytotoxicities of the compounds; • 2.4 Bright-Glo detection: adding 100 μl per well of the Bright-Glo™ Luciferase Substrate, using a chemiluminescence detection system EnVision™ (PerkinElmer, USA) to detect the fluorescence signal values within 5 minutes, and using the obtained data for calculation of potencies of the compounds. • 2.5 data processing: converting the obtained data to a percentage of cell viability (Viability %) using the following formula:
[formula] • CPD: fluorescence signal value of the well added with the compound • ZPE (Zero percent effect): fluorescence signal value of the control well with zero percent effect. • Processing the raw data to calculate a percentage of inhibition (Inhibition %) using the following formula:
[formula] • CPD: fluorescence signal value of the well added with the compound; • HPE (Hundred percent effect): fluorescence signal value of the control well with hundred percent effect; • ZPE (Zero percent effect): fluorescence signal value of the control well with zero percent effect.
The inhibition percentage was processed by the GraphPad Prism software to obtain the corresponding curves and EC50 values.

SMILES | EC50 [nM]
CC(C)OC(=O)[C@H](C)NP(=O)(OC[C@H]1O[C@@H](n2ccc(=O)[nH]c2=O)[C@](C)(F)[C@@H]1O)Oc1ccc2[nH]ccc2c1 (stereo partly drawn) [Example 20, (2S)-2-(((1H-indol-5-yloxy)(((2R,3R,4R,5R)-5-(2,4-dioxo-3,4-dihydropyrimidin-1(2H)-yl)-4-fluoro-3-hydroxy-4-methyltetrahydrofuran-2-yl)methoxy)phosphoryl)amino)propanoic Acid Isopropyl Ester] | 3870

Same assay, conditions: Hepatitis C virus, Huh-7; Huh7 1b cells with HCV 1b replicon, Bright-Glo luciferase, 72 h; read-out: EC50

SMILES | EC50 [nM]
CC(C)OC(=O)[C@H](C)NP(=O)(OC[C@H]1O[C@@H](n2ccc(=O)[nH]c2=O)[C@](C)(F)[C@@H]1O)Oc1ccccc1-c1ccccc1 (stereo partly drawn) [Example 3, (2S)-2-((([1,1′-biphenyl]-2-yloxy)(((2R,3R,4R,5R)-5-(2,4-dioxo-3,4-dihydropyrimidin-1(2H)-yl)-4-fluoro-3-hydroxy-4-methyltetrahydrofuran-2-yl)methoxy)phosphoryl)amino)propanoic Acid Isopropyl Ester] | 123
COc1cc(/C=C/c2ccc(OP(=O)(N[C@@H](C)C(=O)OC(C)C)OC[C@H]3O[C@@H](n4ccc(=O)[nH]c4=O)[C@](C)(F)[C@@H]3O)cc2)cc(OC)c1 (stereo in doubt) [Example 8, (2S)-2-((((E)-4-(3,5-dimethoxyphenylethenyl)phen-1-yloxy)(((2R,3R,4R,5R)-5-(2,4-dioxo-3,4-dihydropyrimidin-1(2H)-yl)-4-fluoro-3-hydroxy-4-methyltetrahydrofuran-2-yl)methoxy)phosphoryl)amino)propanoic Acid Isopropyl Ester] | 411
CC(C)OC(=O)[C@H](C)NP(=O)(OC[C@H]1O[C@@H](n2ccc(=O)[nH]c2=O)[C@](C)(F)[C@@H]1O)Oc1ccc(-c2cccc(F)c2)cc1 (stereo partly drawn) [Example 31, (2S)-2-((((3′-fluoro-[1,1′-biphenyl]-4-yl)oxy)(((2R,3R,4R,5R)-5-(2,4-dioxo-3,4-dihydropyrimidin-1(2H)-yl)-4-fluoro-3-hydroxy-4-methyltetrahydrofuran-2-yl)methoxy)phosphoryl)amino)propanoic Acid Isopropyl Ester] | 102
Cc1cc(-c2ccc(OP(=O)(N[C@@H](C)C(=O)OC(C)C)OC[C@H]3O[C@@H](n4ccc(=O)[nH]c4=O)[C@](C)(F)[C@@H]3O)cc2)ccc1F (stereo partly drawn) [Example 41, (2S)-2-((((4′-fluoro-3′-methyl-[1,1′-biphenyl]-4-yl)oxy)(((2R,3R,4R,5R)-5-(2,4-dioxo-3,4-dihydropyrimidin-1(2H)-yl)-4-fluoro-3-hydroxy-4-methyltetrahydrofuran-2-yl)methoxy)phosphoryl)amino)propanoic Acid Isopropyl Ester] | 50
Cc1cc2c(F)c(OP(=O)(N[C@@H](C)C(=O)OC(C)C)OC[C@H]3O[C@@H](n4ccc(=O)[nH]c4=O)[C@](C)(F)[C@@H]3O)ccc2[nH]1 (stereo partly drawn) [Example 21, (2S)-2-(((4-fluoro-2-methyl-1H-indol-5-yloxy)(((2R,3R,4R,5R)-5-(2,4-dioxo-3,4-dihydropyrimidin-1(2H)-yl)-4-fluoro-3-hydroxy-4-methyltetrahydrofuran-2-yl)methoxy)phosphoryl)amino)propanoic Acid Isopropyl Ester] | 258
Cc1cc2c(F)c(O[P@](=O)(N[C@@H](C)C(=O)OC(C)C)OC[C@H]3O[C@@H](n4ccc(=O)[nH]c4=O)[C@](C)(F)[C@@H]3O)ccc2n1C [Example 33, (2S)-2-(((S)-((4-fluoro-1,2-dimethyl-1H-indol-5-yl)oxy)(((2R,3R,4R,5R)-5-(2,4-dioxo-3,4-dihydropyrimidin-1(2H)-yl)-4-fluoro-3-hydroxy-4-methyltetrahydrofuran-2-yl)methoxy)phosphoryl)amino)propanoic Acid Isopropyl Ester] | 33
CC(C)OC(=O)[C@H](C)NP(=O)(OC[C@H]1O[C@@H](n2ccc(=O)[nH]c2=O)[C@](C)(F)[C@@H]1O)Oc1ccc(-c2cncs2)cc1 (some centres unmarked) [Example 17] | 258
COC(=O)CNP(=O)(OC[C@H]1O[C@@H](n2ccc(=O)[nH]c2=O)[C@](C)(F)[C@@H]1O)Oc1cccc2c1CCCC2 (stereo partly drawn) [Example 14, (2S)-2-(((5,6,7,8-tetrahydronaphthalen-1-yloxy)(((2R,3R,4R,5R)-5-(2,4-dioxo-3,4-dihydropyrimidin-1(2H)-yl)-4-fluoro-3-hydroxy-4-methyltetrahydrofuran-2-yl)methoxy)phosphoryl)amino)acetic Acid Methyl Ester] | 223
CC(C)OC(=O)[C@H](C)NP(=O)(OC[C@H]1O[C@@H](n2ccc(=O)[nH]c2=O)[C@](C)(F)[C@@H]1O)Oc1ccc(-c2ccc(Cl)cc2)cc1 (stereo partly drawn) [Example 27, (2S)-2-((((4′-chloro-[1,1′-biphenyl]-4-yl)oxy)(((2R,3R,4R,5R)-5-(2,4-dioxo-3,4-dihydropyrimidin-1(2H)-yl)-4-fluoro-3-hydroxy-4-methyltetrahydrofuran-2-yl)methoxy)phosphoryl)amino)propanoic Acid Isopropyl Ester] | 98
COC(=O)Cc1coc2c(OP(=O)(N[C@@H](C)C(=O)OC(C)C)OC[C@H]3O[C@@H](n4ccc(=O)[nH]c4=O)[C@](C)(F)[C@@H]3O)cccc12 (stereo partly drawn) [Example 22, (2S)-2-(((3-methoxycarbonylmethyl-benzofuran-7-yloxy)(((2R,3R,4R,5R)-5-(2,4-dioxo-3,4-dihydropyrimidin-1(2H)-yl)-4-fluoro-3-hydroxy-4-methyltetrahydrofuran-2-yl)methoxy)phosphoryl)amino)propanoic Acid Isopropyl Ester] | 314
CC(C)OC(=O)[C@H](C)NP(=O)(OC[C@H]1O[C@@H](n2ccc(=O)[nH]c2=O)[C@](C)(F)[C@@H]1O)Oc1ccc(/C=C/c2ccc(F)cc2)cc1 (stereo partly drawn) [Example 19, (2S)-2-(((4-((E)-4-fluorophenylethenylphenyl)-1-yloxy)(((2R,3R,4R,5R)-5-(2,4-dioxo-3,4-dihydropyrimidin-1(2H)-yl)-4-fluoro-3-hydroxy-4-methyltetrahydrofuran-2-yl)methoxy)phosphoryl)amino)propanoic Acid Isopropyl Ester] | 303
CC(C)OC(=O)[C@H](C)NP(=O)(OC[C@H]1O[C@@H](n2ccc(=O)[nH]c2=O)[C@](C)(F)[C@@H]1O)Oc1ccc(-c2cccc(Cl)c2)cc1 (stereo partly drawn) [Example 32, (2S)-2-((((3′-chloro-[1,1′-biphenyl]-4-yl)oxy)(((2R,3R,4R,5R)-5-(2,4-dioxo-3,4-dihydropyrimidin-1(2H)-yl)-4-fluoro-3-hydroxy-4-methyltetrahydrofuran-2-yl)methoxy)phosphoryl)amino)propanoic Acid Isopropyl Ester] | 68
CC(C)OC(=O)[C@H](C)NP(=O)(OC[C@H]1O[C@@H](n2ccc(=O)[nH]c2=O)[C@](C)(F)[C@@H]1O)Oc1ccc(-c2ccc(Cl)cc2F)cc1 (some centres unmarked) [Example 39] | 61
Cc1ccc(-c2ccc(OP(=O)(N[C@@H](C)C(=O)OC(C)C)OC[C@H]3O[C@@H](n4ccc(=O)[nH]c4=O)[C@](C)(F)[C@@H]3O)cc2)cc1F (some centres unmarked) [Example 40] | 56
Cc1cc2c(F)c(O[P@@](=O)(N[C@@H](C)C(=O)OC(C)C)OC[C@H]3O[C@@H](n4ccc(=O)[nH]c4=O)[C@](C)(F)[C@@H]3O)ccc2n1C [Example 43, (2S)-2-(((R)-((4-fluoro-1,2-dimethyl-1H-indol-5-yl)oxy)(((2R,3R,4R,5R)-5-(2,4-dioxo-3,4-dihydropyrimidin-1(2H)-yl)-4-fluoro-3-hydroxy-4-methyltetrahydrofuran-2-yl)methoxy)phosphoryl)amino)propanoic Acid Isopropyl Ester] | 69
C[C@H](NP(=O)(OC[C@H]1O[C@@H](n2ccc(=O)[nH]c2=O)[C@](C)(F)[C@@H]1O)Oc1cccc2c1CCCC2)C(=O)OC(C)(C)C (stereo partly drawn) [Example 15, (2S)-2-(((5,6,7,8-tetrahydronaphthalen-1-yloxy)(((2R,3R,4R,5R)-5-(2,4-dioxo-3,4-dihydropyrimidin-1(2H)-yl)-4-fluoro-3-hydroxy-4-methyltetrahydrofuran-2-yl)methoxy)phosphoryl)amino)propanoic Acid t-butyl Ester] | > 3330
